For data set [1], the target named is T1, purified, full length human ERα (Homo sapiens, UniProt P03372).
T1 construct: purified, full length human ERα and ERβ
T1 sequence (P03372 1-595): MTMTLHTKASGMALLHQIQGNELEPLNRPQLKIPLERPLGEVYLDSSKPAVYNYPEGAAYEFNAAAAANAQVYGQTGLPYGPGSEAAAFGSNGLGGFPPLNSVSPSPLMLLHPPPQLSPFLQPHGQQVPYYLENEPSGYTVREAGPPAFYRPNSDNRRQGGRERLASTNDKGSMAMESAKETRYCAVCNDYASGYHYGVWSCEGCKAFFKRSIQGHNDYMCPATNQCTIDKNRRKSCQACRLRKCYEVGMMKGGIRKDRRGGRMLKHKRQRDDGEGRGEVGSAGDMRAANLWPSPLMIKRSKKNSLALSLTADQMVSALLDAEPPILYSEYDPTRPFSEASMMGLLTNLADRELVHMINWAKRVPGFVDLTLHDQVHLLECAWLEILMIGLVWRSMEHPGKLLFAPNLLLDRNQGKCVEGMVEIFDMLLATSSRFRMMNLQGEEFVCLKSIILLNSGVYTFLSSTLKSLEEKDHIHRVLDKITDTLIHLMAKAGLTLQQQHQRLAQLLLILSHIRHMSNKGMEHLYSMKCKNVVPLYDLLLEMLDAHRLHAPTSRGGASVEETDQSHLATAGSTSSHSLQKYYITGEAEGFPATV
In words: Relative binding affinity (RBA) radiometric competitive binding assay, ERα. As to conditions: relative binding affinity, E2 (estradiol) is 100%; tritiated estradiol tracer.

In data set [2] the test system is Cuprizone-Induced Demyelinated Mouse Model. In words: Myelin recovery in the cuprizone-induced demyelinated mouse model (MOG IHC, Corpus Callosum). The data set is classed as in vivo, C57BL/6 female mice. The procedure:
The Cuprizone assay of demyelination-remyelination was conducted by the methods described previously (Moore et al. 2013; Crawford et al, 2009a,b). A group of animals was on normal diet (N groups). The remainder of the mice were divided into groups of 5 and all of these groups of mice were fed cuprizone diet at (0.2% cuprizone mixed in chow). After 6 weeks on cuprizone diet-induced demyelination, a group of 5 mice were perfused (DM group). The other groups of mice were switched to normal diet for 1.5 weeks to initiate remyelination and were treated with either (i) Vehicle (SC+V) or (ii) test compound at a dose of 5 mg/kg. […] After 1.5 weeks of normal diet-induced remyelination, the mice were perfused. Brains were collected, cryoprotected, embedded, cut, and IHC for myelin oligodendrocyte glycoproteins (MOG) was performed. Cuprizone study results after 1.5-weeks treatment with the designated 7-substituted compounds via SC administration following 6 weeks cuprizone treatment of (C57BL/6) female mice are shown in FIG. 5. The height of each bar graph represents level of myelination assessed by the expression of MOG in the white matter tracks of the Corpus Callosum area quantified by immunohistochemical analysis (IHC) after staining with a MOG antibody. N: Normal diet, DM: Demyelinated status after 6 weeks cuprizone treatment, SC-Veh: Spontaneous remyelination after injection with matrix in saline solution only (without compound; recovery is only about 40%). (Mice: ~2 months age, SC: Subcutaneous injection, n=5). Cuprizone study results for the 3-weeks treatment with the 6-substituted compound 17 via SC administration following the 6 weeks of 0.2% cuprizone treatment of C57BL/6 female mice are shown in FIG. 6. The height of each bar graph represents level of myelination assessed by the expression of MOG in the white matter tracks of the Corpus Callosum area quantified by immunohistochemical analysis (IHC) after staining with a MOG antibody. N: Normal diet, DM: Demyelinated status after 6 weeks cuprizone treatment, SC-Veh: Spontaneous remyelination after injection with matrix in saline solution only (without compound; recovery is only about 40%). (Mice: ~2 months age, SC: Subcutaneous injection, n=5~6). […] (Mice: ~2 months age, s.c.: Subcutaneous administration, n=5).

For data set [3], the target named is T2, purified, full length human ERβ (Homo sapiens, UniProt Q92731).
T2 construct: purified, full length human ERα and ERβ
Put plainly: Relative binding affinity (RBA) radiometric competitive binding assay, ERβ. As to conditions: for β/α (ERβ/ERα selectivity): ratio of RBA ERβ to RBA ERα; for RBA ERβ: relative binding affinity, E2 (estradiol) is 100%, tritiated estradiol tracer.

In a further data set the test system is Primary OPCs. In words: Primary OPC culture: MBP+ OL differentiation and total cell count (DAPI). The data set is classed as cell-based, mouse. As to conditions: for number of MBP+ OLs with increased percentage of branched OLs, compared to vehicle-treated cells: 10 nM; for MBP expression / number of MBP+ OLs, compared to vehicle-treated cells: 1 nM. The procedure:
Primary OPC Cultures: Primary OPCs, isolated from postnatal day P1 C57BL/6 male and female mouse cortices as described previously, are treated with 10 nM ligands in differentiating medium for […] (Tiwari-Woodruff et al., 2001; Tiwari-Woodruff et al., 2006). Primary OPC are cultured into 8-well chamber slides (three wells per condition, 2.5×10^5 cells/well) for three days to attach and five days in differentiating media (consisting of DMEM-F12 with triiodothyronine- and thyroxine-containing Sato as well as penicillin, streptomycin, insulin, N-acetyl-L-cysteine, forskolin, ciliary neurotrophic factor, neurotrophin-3, and platelet-derived growth factor […] (Tiwari-Woodruff et al., 2001)). A positive control (IndC1), a negative control (Vehicle consisting of the media+EtOH mixture used to dissolve IndCl), and a normal control (differentiating media alone) are used for comparison. At the end of the treatment period, cells are fixed, stained by immunocytochemistry (primary antibody polyclonal chicken myelin basic protein (MBP, Millipore AB9348), and co-stained with nuclear stain-DAPI), and imaged with an Olympus BX61 confocal microscope (Olympus America Inc., Center Valley, PA) at 10× magnification (3 images per well). Cells are counted using the ImageJ multipoint tool, and counts are then divided by the image area (mm^2). Average cell density for each condition is then divided by the normal condition cell density. Analysis of OL differentiation consists of counting the number of MBP+ cells and process extensions that are longer than the respective cell-body diameter and tracking the number of highly branched MBP+ cells (with three or more processes) (Monnerie et al., 2017). Statistics are performed using GraphPad Prism 6 Software (La Jolla, CA). One-way ANOVA with Tukey's posthoc test for multiple comparisons is used to generate p-values, and data are presented as mean±SEM (with α≤0.05).
FIG. 1A-1D show the effects of treatment with the 7-substituted indazole compounds on the expression of myelin basic protein in OLs (MBP^+-OLs, top two panels) as an indication of murine oligodendrocyte precursor cell (OPC) differentiation, as well as the count of the total cells as an indication of cell proliferation/survival (DAPI nucleus stain, bottom two panels). The cells were treated with the listed compounds at 10 nM (FIG. 1A, 1B) and at 1 nM (FIG. 1C, 1D).

Data set [4] can be described thus: 2-hour single-point pharmacokinetic (PK) study, blood and brain. The data set is classed as in vivo, C57BL/6 female mice. As to conditions: for Kp at 2 h: female, C57BL/6, mouse, brain / blood. On the procedure:
The 2-Hour single-point pharmacokinetics for IndCl-7-Cl (compound 7), IndCl-7-Br-3′-OH (compound 12), and IndCl-7-Cl-3′-F (compound 14) was examined in (two and half month old C57BL/6 female) mice after single subcutaneous (SC) injection or oral gavage (PO) in 0.1 mL at a dose 5 mg/kg for SC and 25 mg/kg for PO administration. The vehicle for SC administration was 0.1 mL 10% ethanol and 90% Miglyol 812N or 10% DMSO saline and for PO administration, 0.1 mL 2-hydroxypropyl-beta-cyclodextrin [HPCD]/40% aqueous solution MW ~1540. Two hours after injection blood and brain were collected and processed for quantification of the administered compound at the University of Illinois Metabolomics Core Facility by liquid chromatography-mass spectrometry (LC-MS/MS). The bar graphs indicate the analyzed concentration in the blood and the brain in nM units for each sample and each administered method. The brain uptake ratio over the blood of compound 7 (IndCl-7-C1) in the PO and SC pharmacokinetic study is as high as ~7 and ~6, respectively.
For subcutaneous (SC) injection, the compound made up as a homogeneous suspension in 10% ethanol and 90% Miglyol 812N (vehicle; Sasol) and a 0.1 mL dose was administered by SC injection at a dose of 5 mg/kg body weight. For PO administration, the compound was dissolved into 40% (2-Hydroxypropyl)-β-cyclodextrin (Mw~ 1540)(HP-CD) and administered via oral gavage in a volume of 0.1 mL at a dose of 25 mg/kg body weight.

A further data set deals with uterus. In words: Uterotrophic effect (uterine weight) in non-ovariectomized mice of the cuprizone study. The data set is classed as in vivo. As to conditions: daily SC 5 mg/kg. From the text: The uterus was taken from the mice treated with compounds 5 and 7 from the recovery assessment study using the Cuprizone-induced demyelination model. Uterine weight for each compound is represented by % uterus/body weight.
Estrogens increase uterine weight by acting primarily through ERα (Hewitt and Korach, 2003).

[5] abbreviates: SC 5 mg/kg, 1.5-weeks treatment after 6 weeks cuprizone.

SMILES strings stand for the structures. “Also recorded” adds a separate entry of the source. Like-named read-outs stand apart in the source and are kept apart here.

From patent publication US20260224532A1, “ESTROGEN RECEPTOR BETA LIGANDS FOR THE PREVENTION AND TREATMENT OF MULTIPLE SCLEROSIS (MS) AND OTHER DEMYELINATING, INFLAMMATORY AND NEURODEGENERATIVE DISEASES” (The Board of Trustees of the University of Illinois, priority 2023, published 2026) come the findings set out here.

T2 sequence (Q92731 whole entry): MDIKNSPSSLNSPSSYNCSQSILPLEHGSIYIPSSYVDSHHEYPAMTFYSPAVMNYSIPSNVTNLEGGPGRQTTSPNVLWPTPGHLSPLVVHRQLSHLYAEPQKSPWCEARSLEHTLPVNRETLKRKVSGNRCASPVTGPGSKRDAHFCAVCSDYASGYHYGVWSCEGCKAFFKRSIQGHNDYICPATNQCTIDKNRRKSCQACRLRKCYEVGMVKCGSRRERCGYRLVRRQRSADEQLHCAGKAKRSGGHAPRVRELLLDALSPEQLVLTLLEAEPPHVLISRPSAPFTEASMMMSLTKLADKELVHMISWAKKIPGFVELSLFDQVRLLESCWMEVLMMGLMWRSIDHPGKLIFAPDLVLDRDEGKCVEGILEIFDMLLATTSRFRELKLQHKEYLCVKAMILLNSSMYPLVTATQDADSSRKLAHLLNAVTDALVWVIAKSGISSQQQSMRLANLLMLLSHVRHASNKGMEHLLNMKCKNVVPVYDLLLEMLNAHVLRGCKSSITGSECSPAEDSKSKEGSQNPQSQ

Take `Oc1cccc(-n2nc3c(Br)cc(O)cc3c2Cl)c1` [Compound 12, 7-Bromo-3-chloro-2-(3-hydroxyphenyl)-2H-indazol-5-ol]: the “RBA ERα” value in data set [1] amounted to 0.16%. Moreover, the “remyelination (MOG expression in Corpus Callosum)” value (from here on “remyelination”) in data set [2] (setting [5]) was “does not accelerate remyelination”. In data set [3], the “β/α (ERβ/ERα selectivity)” value stood at 246 and the “RBA ERβ” value is 39.4%. In data set [3] (text statement of the β/α ratio), the “selectivity of binding to ERβ vs ERα” value is 246 fold.
On to `Oc1cc(Cl)c2nn(-c3ccc(O)c(F)c3)c(Cl)c2c1` [Compound 14, 3,7-dichloro-2-(3-fluoro-4-hydroxyphenyl)-2H-indazol-5-ol], for which the “RBA ERα” value in data set [1] stood at 0.86%. The “remyelination” value in data set [2] (setting [5]) was “somewhat less remyelination”. Moreover, in data set [3], the “β/α (ERβ/ERα selectivity)” value was 38.3 and the “RBA ERβ” value came to 32.96%. Besides, the “number of MBP+ OLs with increased percentage of branched OLs, compared to vehicle-treated cells” value in the data set on Primary OPCs is on record as “significant increase”.
In the case of `Oc1ccc(-n2nc3c(Cl)cc(O)cc3c2Cl)cc1` [Compound 7, 3,7-dichloro-2-(4-hydroxyphenyl)-2H-indazol-5-ol], in data set [4] (PO 25 mg/kg vs SC 5 mg/kg, 2 hours), the “concentration in the brain after PO administration compared with SC injection” value is listed as “markedly higher”. For the same molecule, the “brain uptake (in words)” value in data set [4] (PO 25 mg/kg, 2 hours) is reported as “selective high brain uptake”; in data set [4] (SC 5 mg/kg, 2 hours) it was “selective high brain uptake”. In addition, the Kp at 2 h was approximately 7 in data set [4] (PO 25 mg/kg, 2 hours after dosing, read-out: brain uptake ratio over the blood) and approximately 6 in data set [4] (SC 5 mg/kg, 2 hours after dosing, read-out: brain uptake ratio over the blood). For the same molecule, the “RBA ERα” value in data set [1] is 6.9 ± 2.4%. Moreover, in data set [2] (setting [5]), the “remyelination” value is listed as “accelerates remyelination, reaching levels at or above the normal myelin level”. In addition, the “β/α (ERβ/ERα selectivity)” value in data set [3] was determined as 45. In addition, the “MBP expression / number of MBP+ OLs, compared to vehicle-treated cells” value in the data set on Primary OPCs is recorded as “particularly significant increase”. In addition, the “number of MBP+ OLs with increased percentage of branched OLs, compared to vehicle-treated cells” value in the data set on Primary OPCs is recorded as “significant increase”. In addition, the “uterotrophic effect, uterine weight (% uterus/body weight) vs vehicle” value in the data set with uterus is given as “did not show uterotrophic effects significantly different from mice treated with vehicle alone; also recorded: did not stimulate the uterus weight significantly”.
Regarding `Oc1ccc(-n2nc3c(Br)cc(O)cc3c2I)cc1` [Compound 5, 7-bromo-2-(4-hydroxyphenyl)-3-iodo-2H-indazol-5-ol], in data set [1], the “RBA ERα” value came to 6.95%. The “remyelination” value in data set [2] (setting [5]) is on record as “somewhat less remyelination”. Also, the “β/α (ERβ/ERα selectivity)” value in data set [3] was 23. For the same molecule, the “number of MBP+ OLs with increased percentage of branched OLs, compared to vehicle-treated cells” value with Primary OPCs was “significant increase”. For the same molecule, in the data set with uterus, the “uterotrophic effect, uterine weight (% uterus/body weight) vs vehicle” value is “did not show uterotrophic effects significantly different from mice treated with vehicle alone; also recorded: did not stimulate the uterus weight significantly”.
Regarding `Oc1ccc(-n2nc3cc(F)c(O)cc3c2Cl)cc1` [Compound 17, 3-chloro-6-fluoro-2-(4-hydroxyphenyl)-2H-indazol-5-ol], in data set [4] (PO 25 mg/kg, 2 hours, n=3, read-out: concentration in brain relative to concentration in blood), the Kp at 2 h is 3. Also, the “RBA ERα” value in data set [1] stood at 0.968%. The “remyelination” value in data set [2] (SC, 3-weeks treatment after 6 weeks of 0.2% cuprizone) is listed as “recover above the normal level; also recorded: accelerate remyelination to reach a level at or above the normal level”. Further, in data set [3], the “β/α (ERβ/ERα selectivity)” value worked out at 48.7 and the “RBA ERβ” value stood at 47.11%. Also, in the data set with Primary OPCs, the “MBP expression / number of MBP+ OLs, compared to vehicle-treated cells” value was “good MBP expression; also recorded: significant increase” and the “number of MBP+ OLs with increased percentage of branched OLs, compared to vehicle-treated cells” value is “significant increase”.
